Experimental data taken from US7160916B2, “Method of increasing bone density or treating osteoporosis” (Yung Shin Pharmaceutical Ind. Co., Ltd., priority 2003, dated 2007).
Marks after values point to notes of the source that are not given here.

Legend:
Osteoblasts = assay: Assay of cell proliferation (BrdU incorporation); assay type: cell-based, rat
Method: Primary osteoblast cultures: Primary osteoblast cells were prepared from calvaria of 18-day-old fetal Sprague-Dawley (SD) rats according to the following method: Pregnant rats were put in anesthesia using intraperitoneal injection of trichloroacetaldehyde (200 mg/kg). The calvaria of the fetal rats were then dissected with aseptic technique. Soft tissues were removed under a dissecting microscope. The calvaria were divided into small pieces and then treated with 0.1% collagenase (Sigma Chemical, St. Louis, Mo.) solution for 10 minutes at 37° C. The cells released from the calvariae by two 20-minute sequential collagenase digestions were pooled and filtered through 70 μm nylon filters (Falcon, BD BioSciences, San Jose, Calif.). The cells were then grown on plastic cell culture dishes in 95:5 air-CO2 with Dulbecco's modified Eagle's medium (DMEM) (Gibco, Grand Island, N.Y.) which was supplemented with 20 mM HEPES and 10% heat-inactivated FCS, 2 mM-glutamine, penicillin (100 U/ml) and streptomycin (100 μg/ml) (pH adjusted to 7.6). The cell medium was changed twice a week. Osteoblasts were confirmed by morphology and expression of alkaline phosphatase (ALP). […] BrdU incorporation was assayed according to the protocol of enzyme-linked immunosorbent assay chemiluminescence detection kit (Roche Molecular Biochemicals) using a luminescence counter (TopCount; Packard Instruments, Meriden, Conn.). […]

[1] = system: ovariectomized adult female rats; assay: Ovariectomy-induced bone loss: bone size, BMD, BMC, bone volume; assay type: in vivo, rat
Excerpt: Bone histomorphometry: After formalin fixation of tibia was completed, the tibiae were then decalcified in 0.5 N hydrochloric acid, dehydrated in an ascending series of ethanol solution and acetone, and embedded in paraffin. Serial sections (5 μm) were cut longitudinally and stained with Mayer's hematoxylin-eosin solution (Yang et al. (1993) Calcif Tissue Int 52:57–61). Images of the growth plate and proximal tibia were photographed using a photoMicroGraphic Digitize integrate System (MGDS; Total-Integra Technology Co., Ltd., Taipei, Taiwan). Bone volume measurements were performed on the whole secondary spongiosa, which is located under the primary spongiosa and characterized by a network of larger trabeculae. Bone volumes were calculated using an image analysis software. All measurements were done in a single-blind fashion. Ovariectomy and cut of sciatic nerve: Ovariectomy and cut of sciatic nerve were performed in adult female and male rats (3 month-old), respectively. After surgery, the rats were injected with Indazole 1 (i.p., 1 mg/Kg) or a vehicle daily for 4 weeks. On the day following the last injection, the rats were sacrificed and their tibia and femur were removed. Tibia and femur Preparation: At the end of the program, the rats were sacrificed by decapitation. The tibiae were removed, cleaned of soft tissue, and the length of the tibia was measured with a precision caliper (±0.05 mm) as described by Weinreb et al. (1991) J Bone Miner Res 6:725–731. The tibiae were fixed in 10% formaldehyde for 48 h at 4° C. for bone histomorphometry analysis. Some of the tibia and femur were also removed and kept at −20° C. for bone mineral analysis. Analysis of bone mineral density (BMD) and content (BMC): BMD and BMC of the tibia and femur were measured with a dual-energy X-ray absorptiometer (DEXA, XR-26; Norland, Fort Atkinson, Wis.). The mode adapted to the measurements of small subjects was adopted. A coefficient of variation of 0.7% was calculated from daily measurements of BMD on a lumbar phantom for more than 1 year (Yang et al. (1998) Calcif Tissue Int 63:86–90). The tibia and femur were thawed to room temperature before bone mineral analysis. The whole tibiae and femur were scanned and BMD and BMC were measured by absorptiometer. Prevention of bone loss: Ovariectomy (OVX) was performed in adult female rats (n=28). After ovariectomy, one group of the ovariectomized rats (n=16) were injected with Indazole 1 (i.p., 1 mg/kg/day), and the other group (n=12) were not. 15 un-ovarietctomized adult female rats were used as sham-operated controls and were not injected with Indazole 1. […] A 60% reduction in bone volume was observed 4 weeks after ovariectomy. […] The bone volume reached 76% of sham-operated controls.

osteoclasts = assay: Assay of bone resorption of osteoclast; assay type: cell-based, rat; conditions: 3-day incubation after removal of M-CSF and sRANKL, versus control
Method: Assay of bone resorption of osteoclast: Osteoclast precursors were isolated from rat long bones as mentioned above. The cells were re-suspended in a complete DMEM medium and plated into a calcium phosphate apatite-coated 24-well plate, OAAS (Oscotec, OCT USA Inc.) at 1×10^6 cells/0.5 ml/well. The cells were cultured for 5 days in the presence of M-CSF (20 ng/ml) plus sRANKL (50 ng/ml). Indazole 1 was injected daily for additional 3 days in the absence of M-CSF and sRANKL. Culture was terminated on day 8 and the remaining cells in the plate were lysed using 1 N NaOH. Five images per well were obtained using an inverted microscope (200×), and resorbed area was measured using an image analyzer. Local injection Male SD rats weighing 70–88 gm were used. Implantation of a cannula (22G) was done from the posteriolateral side into the proximal tibial metaphysis in both limbs of rats anesthetized with pentobarbital. The cannula had its outer end in the subcutaneous tissue. Indazole 1 was percutaneously injected through the cannula into the proximal tibia once/day for 1 week. The same concentration of DMSO diluted with normal saline was injected into the right side for comparison. On day 14, the rats were sacrificed and tibiae were fixed in 10% formaldehyde for 48 h at 4° C. The effect of Indazole 1 on resorption activity of osteoclasts was also examined. […]

[2] = OVX rats, 1 mg/kg daily for 4 weeks
[3] = OVX rats, i.p. 1 mg/kg daily for 1 month, mean ± S.E.

OCc1ccc(-c2nn(Cc3ccccc3)c3ccccc23)o1 [Indazole 1, 1-benzyl-3-(5′-hydroxymethyl-2′-furyl)-indazole]
proliferation of osteoblasts (Osteoblasts; 0.1 μM): 119.3 % of control
proliferation of osteoblasts (Osteoblasts; 1 μM): 126.1 % of control
bone volume relative to sham-operated controls [1, 2]: 76 % of sham-operated controls
loss of trabecular bone of tibia secondary spongiosa [1, 2]: reduced loss of trabecular bone
Femur BMC [1, 3]: 0.281 ± 0.001^b
Femur BMD [1, 3]: 0.112 ± 0.002^b
Femur length [1, 3]: 3.55 ± 0.01 cm
Femur weight [1, 3]: 0.87 ± 0.01 g
Tibia BMC [1, 3]: 0.173 ± 0.011^b
Tibia BMD [1, 3]: 0.097 ± 0.002^b
Tibia length [1, 3]: 4.05 ± 0.03 cm
Tibia weight [1, 3]: 0.67 ± 0.01 g
ovariectomy-induced loss of BMD and BMC in both tibia and femur ([1]; daily injection, i.p. 1 mg/kg/day): provided protection
resorption activity of osteoclasts (osteoclasts): significantly inhibited
